How the values were obtained:
TK-10 = assay: cells; assay type: functional; settings: Homo sapiens, time 48 hrs
Description: Growth inhibition of human TK-10 cells incubated for 48 hrs by sulforhodamine B assay

OVCAR-4 = assay: cells; assay type: functional; settings: Homo sapiens, time 48 hrs
Description: Growth inhibition of human OVCAR-4 cells incubated for 48 hrs by sulforhodamine B assay

[1] = molecular target: Platelet-derived growth factor receptor alpha (Homo sapiens) (UniProt P16234); assay: Inhibition of recombinant N-terminal His6-tagged human PDGFRalpha (550 to end residues) expressed in baculovirus infected Sf21 insect cells at 10 uM relative to control
[2] = system: Panel leukemia (Carcinoma cell lines); assay: cells; assay type: functional; settings: Homo sapiens, time 48 hrs
Description: Growth inhibition of human Panel leukemia (Carcinoma cell lines) incubated for 48 hrs by sulforhodamine B assay

[3] = molecular target: Fibroblast growth factor receptor 2 (Homo sapiens) (UniProt P21802); assay: Inhibition of N-terminal His6-tagged human FGFR2 (456 to 770 residues) expressed in baculovirus-infected Sf21 cells assessed as residual activity at 10 uM relative to control
[4] = molecular target: Vascular endothelial growth factor receptor 3 (Homo sapiens) (UniProt P35916); assay: Inhibition of N-terminal GST-tagged human FLT4 (800 to end residues) expressed in baculovirus infected Sf21 cells assessed as residual activity at 10 uM relative to control
[5] = molecular target: Insulin-like growth factor 1 receptor (Homo sapiens) (UniProt P08069); assay: Inhibition of human IGF1R assessed as residual activity at 10 uM relative to control
Insulin-like growth factor 1 receptor (Homo sapiens), sequence (P08069 31-736 limits assumed): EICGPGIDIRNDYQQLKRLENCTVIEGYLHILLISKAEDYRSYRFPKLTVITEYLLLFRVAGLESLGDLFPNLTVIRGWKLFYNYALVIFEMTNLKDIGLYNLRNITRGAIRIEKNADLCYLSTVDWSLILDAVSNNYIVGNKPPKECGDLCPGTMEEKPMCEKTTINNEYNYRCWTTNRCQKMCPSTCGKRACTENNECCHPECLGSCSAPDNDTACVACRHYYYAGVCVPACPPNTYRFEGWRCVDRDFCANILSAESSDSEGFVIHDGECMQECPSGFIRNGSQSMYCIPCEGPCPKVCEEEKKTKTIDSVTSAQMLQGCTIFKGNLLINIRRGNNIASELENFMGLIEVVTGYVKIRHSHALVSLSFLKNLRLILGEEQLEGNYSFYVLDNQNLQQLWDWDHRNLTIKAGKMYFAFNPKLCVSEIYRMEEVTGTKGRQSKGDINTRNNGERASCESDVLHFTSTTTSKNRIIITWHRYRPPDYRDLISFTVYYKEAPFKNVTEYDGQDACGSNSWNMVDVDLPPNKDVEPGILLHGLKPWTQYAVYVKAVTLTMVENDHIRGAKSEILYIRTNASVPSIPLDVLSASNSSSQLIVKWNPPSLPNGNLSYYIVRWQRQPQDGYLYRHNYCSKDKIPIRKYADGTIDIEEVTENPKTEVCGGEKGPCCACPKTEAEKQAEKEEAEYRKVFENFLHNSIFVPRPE
Insulin-like growth factor 1 receptor (Homo sapiens), sequence (P08069 741-1367 limits assumed): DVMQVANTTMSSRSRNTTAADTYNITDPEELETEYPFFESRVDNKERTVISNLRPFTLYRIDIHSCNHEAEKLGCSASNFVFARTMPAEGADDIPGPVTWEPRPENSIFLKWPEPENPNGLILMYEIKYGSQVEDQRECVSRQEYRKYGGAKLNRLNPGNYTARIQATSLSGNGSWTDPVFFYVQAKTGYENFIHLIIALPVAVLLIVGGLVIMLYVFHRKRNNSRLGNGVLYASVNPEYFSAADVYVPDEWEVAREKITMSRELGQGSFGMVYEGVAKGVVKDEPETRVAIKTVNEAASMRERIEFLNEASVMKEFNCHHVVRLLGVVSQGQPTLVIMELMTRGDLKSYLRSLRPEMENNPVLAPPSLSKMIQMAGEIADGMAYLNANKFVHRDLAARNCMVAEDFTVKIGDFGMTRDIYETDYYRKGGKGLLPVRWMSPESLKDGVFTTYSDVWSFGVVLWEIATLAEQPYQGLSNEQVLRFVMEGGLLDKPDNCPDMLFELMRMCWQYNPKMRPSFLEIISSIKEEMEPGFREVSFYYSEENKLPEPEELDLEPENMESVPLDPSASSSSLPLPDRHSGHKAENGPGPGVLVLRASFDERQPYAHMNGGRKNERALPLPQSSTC

[6] = system: Panel NCI-60 (60 carcinoma cell lines); assay: cells; assay type: functional; settings: Homo sapiens, time 48 hrs
Description: Growth inhibition of human Panel NCI-60 (60 carcinoma cell lines) incubated for 48 hrs by sulforhodamine B assay

[7] = molecular target: PI3-kinase p110-alpha/p85-alpha (Homo sapiens) (UniProt P27986+P42336); assay: Inhibition of p110 alpha/p85 alpha (unknown origin) at 10 uM relative to control; assay type: protein-complex assay
A549 = assay: cells; assay type: functional; settings: Homo sapiens, time 48 hrs
Description: Growth inhibition of human A549/ATCC cells incubated for 48 hrs by sulforhodamine B assay

[8] = system: Panel prostate (Carcinoma cell lines); assay: cells; assay type: functional; settings: Homo sapiens, time 48 hrs
Description: Growth inhibition of human Panel prostate (Carcinoma cell lines) incubated for 48 hrs by sulforhodamine B assay

LOX IMVI = assay: Growth inhibition of human LOX IMVI cells assessed as growth percentage at 10 uM measured after 48 hrs by sulforhodamine B assay relative to control; assay type: functional; settings: read-out: Activity
OVCAR-8 = assay: cells; assay type: functional; settings: Homo sapiens, time 48 hrs
Description: Growth inhibition of human OVCAR-8 cells incubated for 48 hrs by sulforhodamine B assay

[9] = molecular target: Tyrosine-protein kinase JAK2 (Homo sapiens) (UniProt O60674); assay: Inhibition of recombinant C-terminal His6-tagged human JAK2 (808 to end residues) expressed in baculovirus infected Sf21 insect cells at 10 uM relative to control
[10] = Cytotoxicity against human HFF-1 cells assessed as cell growth inhibition at 1 uM by MTT assay relative to control; assay type: cell-based; settings: read-out: GI
[11] = molecular target: Calcium/calmodulin-dependent protein kinase type II subunit beta (Homo sapiens) (UniProt Q13554); assay: Inhibition of CaMK2beta (unknown origin) at 10 uM relative to control
[12] = molecular target: Ribosomal protein S6 kinase alpha-1 (Homo sapiens) (UniProt Q15418); assay: Inhibition of recombinant full length N-terminal His6-tagged human RSK1 expressed in Sf21 insect cells at 10 uM relative to control
[13] = Cytotoxicity against human HFF-1 cells assessed as cell growth inhibition at 0.1 uM by MTT assay relative to control; assay type: cell-based; settings: read-out: GI
A498 = assay: cells; assay type: functional; settings: Homo sapiens, time 48 hrs
Description: Growth inhibition of human A498 cells incubated for 48 hrs by sulforhodamine B assay

[14] = molecular target: Serine/threonine-protein kinase B-raf (Homo sapiens) (UniProt P15056); assay: Inhibition of recombinant N-terminal GST-tagged human BRAF (417 to 766 residues) expressed in Sf9 cells assessed as residual activity at 10 uM relative to control
CCRF-CEM = assay: cells; assay type: functional; settings: Homo sapiens, time 48 hrs
Description: Growth inhibition of human CCRF-CEM cells incubated for 48 hrs by sulforhodamine B assay

[15] = molecular target: High affinity nerve growth factor receptor (Homo sapiens, UniProt P04629); assay: Inhibition of recombinant N-terminal His6-tagged human TrkA (440 to end residues) expressed in baculovirus infected Sf21 insect cells at 10 uM relative to control
High affinity nerve growth factor receptor, sequence (P04629 33-796 limits assumed): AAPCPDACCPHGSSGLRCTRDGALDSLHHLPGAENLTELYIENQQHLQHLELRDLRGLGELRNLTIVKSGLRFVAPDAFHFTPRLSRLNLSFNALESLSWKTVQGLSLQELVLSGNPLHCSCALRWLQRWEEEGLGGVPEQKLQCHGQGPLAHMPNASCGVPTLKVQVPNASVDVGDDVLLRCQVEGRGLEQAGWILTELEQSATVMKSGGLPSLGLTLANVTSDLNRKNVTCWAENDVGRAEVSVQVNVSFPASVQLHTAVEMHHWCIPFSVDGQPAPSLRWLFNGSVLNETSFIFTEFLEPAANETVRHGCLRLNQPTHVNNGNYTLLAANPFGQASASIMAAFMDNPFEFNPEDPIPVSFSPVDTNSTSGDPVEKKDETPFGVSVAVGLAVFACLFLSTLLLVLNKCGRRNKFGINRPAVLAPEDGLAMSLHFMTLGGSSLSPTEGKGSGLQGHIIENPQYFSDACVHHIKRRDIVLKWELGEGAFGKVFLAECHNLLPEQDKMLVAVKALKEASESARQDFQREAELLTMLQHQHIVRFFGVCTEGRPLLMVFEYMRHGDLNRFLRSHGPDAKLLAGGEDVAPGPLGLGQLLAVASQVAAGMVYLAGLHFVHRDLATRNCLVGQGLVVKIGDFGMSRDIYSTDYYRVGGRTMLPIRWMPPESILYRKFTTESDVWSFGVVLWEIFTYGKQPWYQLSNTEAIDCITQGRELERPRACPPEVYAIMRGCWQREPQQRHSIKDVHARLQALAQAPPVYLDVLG

[16] = molecular target: Mitogen-activated protein kinase 1 (Homo sapiens) (UniProt P28482); assay: Inhibition of recombinant full length N-terminal GST-tagged human MAPK2 expressed in Escherichia coli at 10 uM relative to control
Mitogen-activated protein kinase 1 (Homo sapiens), sequence (P28482 whole entry): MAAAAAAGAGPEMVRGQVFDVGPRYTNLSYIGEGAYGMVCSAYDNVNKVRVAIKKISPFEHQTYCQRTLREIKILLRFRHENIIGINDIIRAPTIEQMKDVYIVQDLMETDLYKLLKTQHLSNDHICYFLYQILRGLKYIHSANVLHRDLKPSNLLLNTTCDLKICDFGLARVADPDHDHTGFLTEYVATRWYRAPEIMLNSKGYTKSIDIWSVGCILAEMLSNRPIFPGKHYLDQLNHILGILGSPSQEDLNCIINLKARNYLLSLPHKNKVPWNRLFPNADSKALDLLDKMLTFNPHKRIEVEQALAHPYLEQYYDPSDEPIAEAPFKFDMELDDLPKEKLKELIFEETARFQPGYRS

OVCAR-3 = assay: cells; assay type: functional; settings: Homo sapiens, time 48 hrs
Description: Growth inhibition of human OVCAR-3 cells incubated for 48 hrs by sulforhodamine B assay

Hs-578T = assay: cells; assay type: functional; settings: Homo sapiens, time 48 hrs
Description: Growth inhibition of human Hs-578T cells incubated for 48 hrs by sulforhodamine B assay

[17] = molecular target: RAF proto-oncogene serine/threonine-protein kinase (Homo sapiens) (UniProt P04049); assay: Inhibition of recombinant N-terminal GST-tagged human CRAF (306 to 648 residues) expressed in Sf9 cells assessed as residual activity at 10 uM relative to control
[18] = molecular target: Cytoplasmic tyrosine-protein kinase BMX (Homo sapiens) (UniProt P51813); assay: Inhibition of N-terminal full length His6-tagged human recombinant BMX expressed in Sf21 cells assessed as residual activity at 10 uM relative to control
[19] = molecular target: Proto-oncogene tyrosine-protein kinase ROS (Homo sapiens) (UniProt P08922); assay: Inhibition of recombinant N-terminal His6-tagged human ROS (1883 to end residues) expressed in baculovirus infected Sf21 insect cells at 10 uM relative to control
cells = assay type: functional; settings: Homo sapiens, Non-small cell lung cancer cell line; time 48 hrs
Description: Growth inhibition of human Non-small cell lung cancer cell line incubated for 48 hrs by sulforhodamine B assay

[20] = molecular target: Hepatocyte growth factor receptor (Homo sapiens) (UniProt P08581); assay: Inhibition of recombinant N-terminal His6-tagged human MET (974 to end residues) expressed in baculovirus infected Sf21 insect cells at 10 uM relative to control
UO-31 = assay: cells; assay type: functional; settings: Homo sapiens, time 48 hrs
Description: Growth inhibition of human UO-31 cells incubated for 48 hrs by sulforhodamine B assay

[21] = molecular target: Vascular endothelial growth factor receptor 2 (Homo sapiens) (UniProt P35968); assay: Inhibition of N-terminal His6-tagged recombinant human KDR (790 to end residues) expressed in baculovirus infected Sf21 cells at 10 uM relative to control
Vascular endothelial growth factor receptor 2 (Homo sapiens), sequence (P35968 whole entry): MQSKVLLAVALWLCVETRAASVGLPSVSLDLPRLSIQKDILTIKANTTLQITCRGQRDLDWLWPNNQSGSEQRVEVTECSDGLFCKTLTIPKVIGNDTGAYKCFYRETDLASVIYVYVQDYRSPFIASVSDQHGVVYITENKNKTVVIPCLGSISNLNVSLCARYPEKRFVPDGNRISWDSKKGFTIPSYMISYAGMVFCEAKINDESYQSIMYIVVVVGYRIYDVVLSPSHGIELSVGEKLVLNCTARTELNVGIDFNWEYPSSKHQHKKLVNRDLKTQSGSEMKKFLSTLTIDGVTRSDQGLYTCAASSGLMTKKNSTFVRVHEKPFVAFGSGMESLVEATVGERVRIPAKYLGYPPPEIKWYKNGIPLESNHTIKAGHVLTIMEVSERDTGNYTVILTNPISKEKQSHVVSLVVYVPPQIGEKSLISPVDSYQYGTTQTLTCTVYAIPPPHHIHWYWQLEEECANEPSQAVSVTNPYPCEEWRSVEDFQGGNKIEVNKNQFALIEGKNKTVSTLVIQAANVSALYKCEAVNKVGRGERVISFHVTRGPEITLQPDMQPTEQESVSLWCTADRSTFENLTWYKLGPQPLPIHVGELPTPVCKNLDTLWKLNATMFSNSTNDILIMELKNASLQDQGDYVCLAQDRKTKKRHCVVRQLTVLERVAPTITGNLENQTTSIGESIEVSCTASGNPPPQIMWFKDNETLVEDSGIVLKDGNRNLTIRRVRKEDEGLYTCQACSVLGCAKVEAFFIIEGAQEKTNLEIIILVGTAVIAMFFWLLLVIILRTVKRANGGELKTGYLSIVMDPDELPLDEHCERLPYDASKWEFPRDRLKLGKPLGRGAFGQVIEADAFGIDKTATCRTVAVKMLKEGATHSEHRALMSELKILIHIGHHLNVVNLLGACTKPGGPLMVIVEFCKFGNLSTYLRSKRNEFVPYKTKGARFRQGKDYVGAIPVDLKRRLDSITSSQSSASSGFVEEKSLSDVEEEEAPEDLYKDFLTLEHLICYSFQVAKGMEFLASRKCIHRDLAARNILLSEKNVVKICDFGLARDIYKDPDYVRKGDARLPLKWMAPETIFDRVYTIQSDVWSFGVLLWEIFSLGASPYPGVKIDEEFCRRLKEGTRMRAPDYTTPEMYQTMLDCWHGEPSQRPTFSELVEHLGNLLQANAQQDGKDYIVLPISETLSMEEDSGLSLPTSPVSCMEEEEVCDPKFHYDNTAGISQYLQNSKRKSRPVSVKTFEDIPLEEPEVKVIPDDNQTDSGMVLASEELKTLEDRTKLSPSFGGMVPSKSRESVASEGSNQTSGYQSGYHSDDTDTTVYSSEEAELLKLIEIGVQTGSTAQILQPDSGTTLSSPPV

NCI-H226 = assay: cells; assay type: functional; settings: Homo sapiens, time 48 hrs
Description: Growth inhibition of human NCI-H226 cells incubated for 48 hrs by sulforhodamine B assay

[22] = molecular target: Angiopoietin-1 receptor (Homo sapiens) (UniProt Q02763); assay: Inhibition of recombinant N-terminal His6-tagged human Tie2 (771 to end residues) expressed in baculovirus infected Sf21 insect cells at 10 uM relative to control
Angiopoietin-1 receptor (Homo sapiens), sequence (Q02763 whole entry): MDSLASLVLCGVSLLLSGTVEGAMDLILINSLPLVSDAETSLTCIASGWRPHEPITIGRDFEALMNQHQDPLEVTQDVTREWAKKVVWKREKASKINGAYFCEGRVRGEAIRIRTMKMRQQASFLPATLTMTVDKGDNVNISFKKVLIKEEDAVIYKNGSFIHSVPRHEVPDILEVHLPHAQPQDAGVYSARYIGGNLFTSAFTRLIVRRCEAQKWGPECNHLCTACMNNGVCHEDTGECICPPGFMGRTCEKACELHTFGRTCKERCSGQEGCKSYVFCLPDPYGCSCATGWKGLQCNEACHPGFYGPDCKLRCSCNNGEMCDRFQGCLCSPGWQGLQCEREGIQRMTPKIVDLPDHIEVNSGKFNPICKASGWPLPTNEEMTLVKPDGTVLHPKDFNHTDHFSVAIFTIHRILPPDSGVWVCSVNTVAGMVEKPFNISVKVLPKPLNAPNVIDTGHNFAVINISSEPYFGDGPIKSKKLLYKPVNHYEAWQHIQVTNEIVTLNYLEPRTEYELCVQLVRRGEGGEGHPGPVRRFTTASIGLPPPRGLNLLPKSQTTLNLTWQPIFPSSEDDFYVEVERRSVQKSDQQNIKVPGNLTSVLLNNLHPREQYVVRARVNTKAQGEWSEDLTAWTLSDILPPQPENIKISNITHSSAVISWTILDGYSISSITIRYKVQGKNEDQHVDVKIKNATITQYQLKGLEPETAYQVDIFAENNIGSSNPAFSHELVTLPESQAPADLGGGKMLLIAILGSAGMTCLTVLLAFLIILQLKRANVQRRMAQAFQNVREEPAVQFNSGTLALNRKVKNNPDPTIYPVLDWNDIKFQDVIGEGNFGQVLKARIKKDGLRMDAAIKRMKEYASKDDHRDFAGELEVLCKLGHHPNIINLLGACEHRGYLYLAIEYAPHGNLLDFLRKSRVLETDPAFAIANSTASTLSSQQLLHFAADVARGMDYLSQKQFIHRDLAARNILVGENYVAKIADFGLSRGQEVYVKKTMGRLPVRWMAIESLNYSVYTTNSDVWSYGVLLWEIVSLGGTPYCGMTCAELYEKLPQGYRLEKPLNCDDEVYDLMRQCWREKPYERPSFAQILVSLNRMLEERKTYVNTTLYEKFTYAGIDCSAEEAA

[23] = molecular target: CDK3/Cyclin E (Homo sapiens) (UniProt P24864+Q00526); assay: Inhibition of full length C-terminal His6-tagged human CDK3/full length N-terminal GST-tagged human Cyclin E expressed in baculovirus infected Sf21 insect cells assessed as residual activity at 10 uM relative to control
SK-MEL-28 = assay: cells; assay type: functional; settings: Homo sapiens, time 48 hrs
Description: Growth inhibition of human SK-MEL-28 cells incubated for 48 hrs by sulforhodamine B assay

[24] = molecular target: Tyrosine-protein kinase SYK (Homo sapiens) (UniProt P43405); assay: Inhibition of recombinant full length N-terminal His6-tagged human SYK expressed in baculovirus infected Sf21 insect cells at 10 uM relative to control

SMILES: CN1CCN(CCCOc2cccc3nc(Nc4ccc(Cl)c(C(F)(F)F)c4)ccc23)CC1
- GI50 (TK-10): 1800 nM
- GI50 (OVCAR-4): 2730 nM
- inhibition [1]: < 60%
- GI50 [2]: 1380 nM
- LC50 (50% lethal concentration) [2]: 7780 nM
- TGI [2]: 3480 nM
- Activity [3]: < 60%
- Activity [4]: < 60%
- Activity [5]: < 60%
- GI50 [6]: 1620 nM
- TGI [6]: 3470 nM
- CC50 ([6]; read-out: LC50 (the source's name)): 8130 nM
- inhibition [7]: < 60%
- GI50 (A549): 1720 nM
- GI50 [8]: 1690 nM
- LC50 (concentration killing 50% of cells) [8]: 5880 nM
- TGI [8]: 3150 nM
- growth at 10 µM (LOX IMVI): -5.77%
- GI50 (OVCAR-8): 1920 nM
- inhibition [9]: < 60%
- inhibition at 1 µM [10]: 12.7%
- inhibition [11]: < 60%
- inhibition [12]: < 60%
- inhibition at 0.1 µM [13]: 6.07%
- GI50 (A498): 1680 nM
- Activity [14]: < 60%
- GI50 (CCRF-CEM): 1210 nM
- inhibition [15]: 96%
- inhibition [16]: < 60%
- GI50 (OVCAR-3): 1810 nM
- GI50 (Hs-578T): 2000 nM
- Activity [17]: < 60%
- Activity [18]: < 60%
- inhibition [19]: < 60%
- GI50 (cells): 1680 nM
- LC50 (50% lethal concentration) (cells): 10100 nM
- TGI (cells): 3660 nM
- inhibition [20]: < 60%
- GI50 (UO-31): 1460 nM
- inhibition [21]: < 60%
- GI50 (NCI-H226): 2070 nM
- inhibition [22]: < 60%
- Activity [23]: < 60%
- GI50 (SK-MEL-28): 1390 nM
- inhibition [24]: < 60%
